Source: the supplement of paper PMC11451515

Test system: NOMO1
Assay: cell viability relative to DMSO control; higher = less cytotoxic
Conditions: 48 h
In short: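 Viability is a per-plate percentage relative to DMSO wells, with cell-free wells as background. CellTiter-Glo One luminescence was read after 48 h at 37°C on 1536-well plates (5 μl) of NOMO1 or SEM (500 cells/well) or P12-Ichikawa (1000 cells/well) leukemia cells. The cells had been adapted for at least four passages in each medium and pin-dosed with library compounds in DMSO from 47 μM to 0.79 nM in 11 threefold steps.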

CCn1c(C(=O)N(C2CC2)C2CC2)cc2c3c(ncn3C)c(Nc3cc(C)n(C)n3)nc21
cell viability [%]
Conditions	HPLM + 10% dialyzed FBS	RPMI 5 mM glucose + 10% FBS	RPMI 5 mM glucose + 10% dialyzed FBS
0.000781 µM	90.4	86.7	84.1
0.00234 µM	113	100	104
0.00702 µM	106	93.9	105
0.0211 µM	114	118	94.7
0.0632 µM	122	117	116
0.19 µM	115	103	111
0.569 µM	113	114	115
1.71 µM	105	102	112
5.12 µM	108	102	110
15.4 µM	119	111	116
46.1 µM	88.5	84.4	98.6
